According to US11981666B2, “GLP-1 receptor agonist and composition and use thereof” (HANGZHOU ZHONGMEIHUADONG PHARMACEUTICAL CO., LTD., priority 2021, dated 2024):
Where two headings read alike, the source gives them in different places.

Legend:
[1] = Metabolic stability in (human) liver microsomes; type: in vitro ADME; conditions: pH 7.4, test concentration 1 μM
Protocol: 3×NADPH stock solution (6 mM, 5 mg/mL) was prepared by dissolving NADPH in the buffer solution; 4. 30 μL of 1.5 μM additive solution containing 0.75 mg/mL microsomal solution was distributed to the plates designated for different time points (0, 5, 15, 30, 45 minutes); 5. at 0 min, 150 μL of ACN containing IS was added to the wells of the plate, followed by addition of 15 μL of NADPH stock solution (6 mM, step 3); 6. all other plates were pre-incubated at 37° C. for 5 minutes; 7. adding 15 μL of NADPH stock solution to the plate to start the reaction and timing; 8. 150 μL of ACN containing IS was added to the wells of the corresponding plates to stop the reaction at 5 min, 15 min, 30 min and 45 min, respectively; 9. after quenching, the plates were shaken on a shaker for 10 minutes (600 rpm/min) and then centrifuged at 6000 rpm for 15 minutes; 10. 80 μL of supernatant was transferred from each well to a 96-well sample plate containing 140 μL water for LC/MS analysis.
Detection method: LC-MS/MS-11 (8050), internal standard: tolbutamide; MS conditions: positive ion ESI for testosterone and test compound, and negative ion ESI for tolbutamide; Mobile phases: mobile phase A is 0.1% FA in water, and mobile phase B is 0.1% FA in ACN; Column and specification: ACQUITY UPLC HSS T3 1.8 um 2.1*50 mm.

Human GLP-1R = target: T1, Human GLP-1R (Homo sapiens, UniProt P43220); assay: GLP-1R agonistic activity assay (HTRF cAMP, 293A GFP-GLP-1R cells); type: cell-based; conditions: cAMP level, geometric mean
T1 construct: expressed in transfected cells
T1 sequence (P43220 24-463): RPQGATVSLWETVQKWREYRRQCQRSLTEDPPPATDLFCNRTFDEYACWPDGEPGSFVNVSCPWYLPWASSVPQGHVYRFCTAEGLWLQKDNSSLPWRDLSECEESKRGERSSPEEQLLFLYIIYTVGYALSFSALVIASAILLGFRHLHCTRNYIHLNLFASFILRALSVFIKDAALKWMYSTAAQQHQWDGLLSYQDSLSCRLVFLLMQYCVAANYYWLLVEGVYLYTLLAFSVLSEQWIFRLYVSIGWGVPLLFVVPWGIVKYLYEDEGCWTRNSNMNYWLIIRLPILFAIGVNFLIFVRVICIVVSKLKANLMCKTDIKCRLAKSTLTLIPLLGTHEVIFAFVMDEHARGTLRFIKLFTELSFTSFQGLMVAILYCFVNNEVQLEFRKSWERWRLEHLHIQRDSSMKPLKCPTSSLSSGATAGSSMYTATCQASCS
Excerpt: The method was a competitive immunoassay.

hERG potassium channels = target: T2, hERG potassium channels (Homo sapiens, UniProt Q12809); assay: Test for inhibition of hERG potassium channels (whole-cell patch clamp, HEK-293-hERG cells); type: cell-based
T2 construct: expressed in transfected cells; host or cells: HEK-293-hERG cells
T2 sequence (Q12809 whole entry): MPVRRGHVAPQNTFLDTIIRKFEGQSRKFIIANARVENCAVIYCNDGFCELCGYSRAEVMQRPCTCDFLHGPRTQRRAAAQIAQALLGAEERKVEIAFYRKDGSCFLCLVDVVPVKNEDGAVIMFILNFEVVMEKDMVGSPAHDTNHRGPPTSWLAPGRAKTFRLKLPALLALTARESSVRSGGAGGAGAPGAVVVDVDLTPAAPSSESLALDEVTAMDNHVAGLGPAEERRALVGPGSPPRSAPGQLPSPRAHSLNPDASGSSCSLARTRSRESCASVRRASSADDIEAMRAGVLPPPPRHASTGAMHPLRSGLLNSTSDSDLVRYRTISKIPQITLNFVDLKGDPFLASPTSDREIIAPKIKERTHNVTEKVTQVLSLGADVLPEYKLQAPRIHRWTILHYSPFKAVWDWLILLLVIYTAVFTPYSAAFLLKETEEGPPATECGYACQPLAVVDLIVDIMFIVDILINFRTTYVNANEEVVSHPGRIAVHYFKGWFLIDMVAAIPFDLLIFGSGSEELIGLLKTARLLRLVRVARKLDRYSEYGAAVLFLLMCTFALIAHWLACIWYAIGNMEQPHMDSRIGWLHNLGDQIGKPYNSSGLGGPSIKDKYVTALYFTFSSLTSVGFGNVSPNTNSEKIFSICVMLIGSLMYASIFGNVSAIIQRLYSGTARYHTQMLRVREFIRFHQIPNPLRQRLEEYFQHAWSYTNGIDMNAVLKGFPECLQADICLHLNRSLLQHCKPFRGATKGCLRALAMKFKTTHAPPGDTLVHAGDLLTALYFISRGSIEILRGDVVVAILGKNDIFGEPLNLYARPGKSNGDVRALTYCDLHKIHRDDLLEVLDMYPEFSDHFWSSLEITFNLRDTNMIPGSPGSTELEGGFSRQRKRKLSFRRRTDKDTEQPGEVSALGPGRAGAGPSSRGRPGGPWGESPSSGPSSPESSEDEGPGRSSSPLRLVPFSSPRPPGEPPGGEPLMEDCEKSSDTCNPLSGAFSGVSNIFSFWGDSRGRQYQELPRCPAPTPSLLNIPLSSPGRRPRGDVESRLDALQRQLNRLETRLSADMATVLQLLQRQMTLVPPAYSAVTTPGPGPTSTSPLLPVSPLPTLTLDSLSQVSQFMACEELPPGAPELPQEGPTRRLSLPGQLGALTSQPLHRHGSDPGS
Excerpt: Positive control: Amitriptyline hydrochloride or Terfenadine

[2] = Toxicological experiment in mice, 14-day repeated oral gavage (toxicokinetic study); type: in vivo, mouse; conditions: ICR, mouse, po, 200 mg/kg, Day 14; for AUC(0-t): plasma, read-out: AUC(0-t), the systemic exposure (first value listed)
Protocol: (§1) Experimental method: 212 ICR mice (SPF grade), half male and half female. Animals in groups 1-5 were used for toxicity study, with 10 male and 10 female animals in each group; and animals in groups 6-9 were used for toxicokinetic study, with 14 male and 14 female animals in each group (2 of them were spare animals). […] Animals in Groups 1-9 were administered orally once a day for 14 consecutive days.

ICR mice [3] = assay: as above; type: in vivo, mouse; conditions: toxicokinetic study, male animals, 200 mg/kg oral once a day for 14 days
Protocol: as §1

ICR mice [4] = assay: Toxicological experiment in mice, 14-day repeated oral gavage (toxicity study); type: in vivo
Protocol: as §1

| SMILES | half-life at 1 μM [1] [h] | EC50 (Human GLP-1R) [nM] | further results |
| --- | --- | --- | --- |
| COc1cc(C2COC2)ccc1COc1cccc(C2CCN(Cc3nc4ccc(C(=O)O)cc4n3C[C@@H]3CCO3)CC2)n1 [Compound 3, (S)-2-((4-(6-((2-methoxy-4-(oxetan-3-yl)benzyl)oxy)pyridin-2-yl)piperidin-1-yl)methyl)-1-(oxetan-2-ylmethyl)-1H-benzo[d]imidazole-6-carboxylic acid] | 2.56 | 0.03 | – |
| N#CCC1(Cn2c(CN3CCC(c4cccc(OCc5ccc(C6COC6)cc5F)n4)CC3)nc3ccc(C(=O)O)cc32)CC1 [Compound 4, 1-((1-(cyanomethyl)cyclopropyl)methyl)-2-((4-(6-((2-fluoro-4-(oxetan-3-yl)benzyl)oxy)pyridin-2-yl)piperidin-1-yl)methyl)-1H-benzo[d]imidazole-6-carboxylic acid] | – | 0.08 | – |
| O=C(O)c1ccc2nc(CN3CCC(c4cccc(OCc5ccc(C6COC6)cc5F)n4)CC3)n(CC3(CF)CC3)c2c1 [Compound 5, 2-((4-(6-((2-fluoro-4-(oxetan-3-yl)benzyl)oxy)pyridin-2-yl)piperidin-1-yl)methyl)-1-((1-(fluoromethyl)cyclopropyl)methyl)-1H-benzo[d]imidazole-6-carboxylic acid] | – | 0.003 | – |
| O=C(O)c1ccc2nc(CN3CCC(c4cccc(OCc5ccc(C6COC6)cn5)n4)CC3)n(C[C@@H]3CCO3)c2c1 [Compound 6, (S)-1-(oxetan-2-ylmethyl)-2-((4-(6-((5-(oxetan-3-yl)pyridin-2-yl)methoxy)pyridin-2-yl)piperidin-1-yl)methyl)-1H-benzo[d]imidazole-6-carboxylic acid] | 0.717 | 0.7 | – |
| N#CCC1(Cn2c(Cc3ccc(-c4cccc(OCc5ccc(C6COC6)cc5F)n4)cc3F)nc3ccc(C(=O)O)cc32)CC1 [Compound 8, 1-((1-(cyanomethyl)cyclopropyl)methyl)-2-(2-fluoro-4-(6-((2-fluoro-4-(oxetan-3-yl)benzyl)oxy)pyridin-2-yl)benzyl)-1H-benzo[d]imidazole-6-carboxylic acid] | – | 0.02 | – |
| O=C(O)c1ccc2nc(CN3CCC(c4cccc(OCc5ccc(C6COC6)cc5F)n4)CC3)n(CC3(F)CCC3)c2c1 [Compound 9, 2-((4-(6-((2-fluoro-4-(oxetan-3-yl)benzyl)oxy)pyridin-2-yl)piperidin-1-yl)methyl)-1-((1-fluorocyclobutyl)methyl)-1H-benzo[d]imidazole-6-carboxylic acid] | – | 0.39 | – |
| O=C(O)c1ccc2nc(Cc3ccc(-c4cccc(OCc5ccc(C6COC6)cc5F)n4)cc3F)n(CC3(CF)CC3)c2c1 [Compound 10, 2-(2-fluoro-4-(6-((2-fluoro-4-(oxetan-3-yl)benzyl)oxy)pyridin-2-yl)benzyl)-1-((1-(fluoromethyl)cyclopropyl)methyl)-1H-benzo[d]imidazole-6-carboxylic acid] | – | 0.03 | – |
| O=C(O)c1ccc2nc(Cc3ccc(-c4cccc(OCc5ccc(C6COC6)cc5F)n4)cc3F)n(C[C@@H]3CCO3)c2c1 [Compound 11, (S)-2-(2-fluoro-4-(6-((2-fluoro-4-(oxetan-3-yl)benzyl)oxy)pyridin-2-yl)benzyl)-1-(oxetan-2-ylmethyl)-1H-benzo[d]imidazole-6-carboxylic acid] | 1.05 | 0.011 | – |
| O=C(O)c1ccc2nc(CN3CCC(c4cccc(OCc5ccc(C6(F)COC6)cc5F)n4)CC3)n(C[C@@H]3CCO3)c2c1 [Compound 15, (S)-2-((4-(6-((2-fluoro-4-(3-fluoroxetan-3-yl)benzyl)oxy)pyridin-2-yl)piperidin-1-yl)methyl)-1-(oxetan-2-ylmethyl)-1H-benzo[d]imidazole-6-carboxylic acid] | – | 0.08 | – |
| N#Cc1ccc(COc2cccc(C3CCN(Cc4nc5ccc(C(=O)O)cc5n4C[C@@H]4CCO4)CC3)n2)c(F)c1 [Compound 20, 2-[(4-{6-[(4-cyano-2-fluorophenyl)methoxy]pyridin-2-yl}piperidin-1-yl)methyl]-1-{[(2S)-oxetan-2-yl]methyl}-1H-1,3-benzodiazole-6-carboxylic acid, reference compound] | 1.87 | – | IC50 (hERG potassium channels): 5800 nM; AUC(0-inf) ([2]; plasma of female animals): 331 µg·h/mL; Cmax ([2]; plasma of female animals): 104 µg/mL; AUC(0-inf) ([2]; plasma of male animals): 254 µg·h/mL; Cmax ([2]; plasma of male animals): 91 µg/mL; AUC(0-t) ([2]; female, plasma of female animals): 338 µg·h/mL; AUC(0-t) ([2]; male, plasma of male animals): 387 µg·h/mL; animals found dead (ICR mice [3]): 4/14; non-toxic response dose level (ICR mice [4]; ICR mice, gavage once a day for 14 consecutive days): less than 200 mg/kg; biochemical analysis of serum (ICR mice [4]; compared to vehicle control): increase in TBIL; clinical observation (ICR mice [4]; toxicity and toxicokinetic studies, 200 mg/kg): decreased activity, piloerection, cold skin when touched, arched-back posture and prone position were frequently observed; animals found dead (ICR mice [4]; toxicity study, male animals, 200 mg/kg oral once a day for 14 days): 2/10 |

Second part, led by results:

| half-life at 1 μM [1] [h] | EC50 (Human GLP-1R) [nM] | SMILES | further results |
| --- | --- | --- | --- |
| 1.2 | 0.1 | O=C(O)c1ccc2nc(CN3CCC4c5nc(OCc6ccc(C7COC7)cc6F)ccc5COCC4C3)n(C[C@@H]3CCO3)c2c1 (single isomer, unassigned) [Compound 12-B] | – |
| – | 0.14 | O=C(O)c1ccc2nc(CN3CCC4c5nc(OCc6ccc(C7COC7)cc6Cl)ccc5COCC4C3)n(CC3CCO3)c2c1 (single isomer, unassigned) [Compound 17-B] | – |
| 2.06 | 0.07 | O=C(O)c1ccc2nc(CN3CCC(c4cccc(OCc5ccc(C6COC6)cc5Cl)n4)CC3)n(C[C@@H]3CCO3)c2c1 [Compound 2, (S)-2-((4-(6-((2-chloro-4-(oxetan-3-yl)benzyl)oxy)pyridin-2-yl)piperidin-1-yl)methyl)-1-(oxetan-2-ylmethyl)-1H-benzo[d]imidazole-6-carboxylic acid] | – |
| 1.74 | 0.1 | O=C(O)c1ccc2nc(CN3CCC4=C(COCc5ccc(OCc6ccc(C7COC7)cc6F)nc54)C3)n(C[C@@H]3CCO3)c2c1 [Compound 7, (S)-2-((2-((2-fluoro-4-(oxetan-3-yl)benzyl)oxy)-5,8,10,11-tetrahydro-oxepino[4,3-b: 6,5-c′]dipyridin-9(7H)-yl)methyl)-1-(oxetan-2-ylmethyl)-1H-benzo[d]imidazole-6-carboxylic acid] | – |
| – | 0.85 | O=C(O)c1ccc2nc(CN3CCC(c4cccc(OCc5ccc(C6COC6)cc5C(F)F)n4)CC3)n(C[C@@H]3CCO3)c2c1 [Compound 18, (S)-2-((4-(6-((2-(difluoromethyl)-4-(oxetan-3-yl)benzyl)oxy)pyridin-2-yl)piperidin-1-yl)methyl)-1-(oxetan-2-ylmethyl)-1H-benzo[d]imidazole-6-carboxylic acid] | – |
